Laboratory results published in paper PMC7118115, “Tumor-penetrating peptide for systemic targeting of Tenascin-C” (Scientific Reports, 2020).
“Also recorded” adds a separate entry of the source. Ends that are not written are not given here.

Legend:
recombinant TNC-C = assay: Cell-free phage binding to TNC-C; parameters: species or system human
Procedure: For biopanning on recombinant human TNC-C, we used NNK-encoded CX7C and X7 peptide T7 phage libraries with diversity ~5 × 10^8. Throughout our screens, the selected phages were amplified following plate amplification protocol. The 1st and 4th rounds of biopanning were performed on TNC-C immobilized on Costar 96-Well ELISA plate (#3590, Corning Life Sciences, Tewksbury, MA, USA). Briefly, the multiwell plates were coated with 20 µg/ml recombinant TNC-C in 100 µl of PBS overnight at 4 °C, followed by blocking with 1% bovine serum albumin (BSA) in PBS overnight at 4 °C. The phage library (5 × 10^8 pfu in 100 µl of PBS-BSA) was incubated overnight at 4 °C, followed by 6 washes with PBS containing 1% BSA and 0.1% Tween-20 (washing buffer) to remove background phages, and by phage rescue and amplification in E. coli strain BLT5403 (Novagen, EMD Biosciences, MA, USA)[8]. The subsequent rounds of selection were performed on Ni-NTA Magnetic Agarose Beads (QIAGEN, Hilden, Germany) coated with His-6X tagged TNC-C (30 µg/10 µl beads) at room temperature for 1 h in 400 µl of PBS. The TNC-C beads were washed 3 times with washing buffer, followed by incubation with phages in (5 × 10^8 pfu in 100 µl in washing buffer) at room temperature for 1 h. The background phages were removed by rinsing 6 times with washing buffer, and the bound phages were eluted with 1 ml of PBS containing 500 mM Imidazole and 0.1% NP40.
(§1) The eluted phages were titered and amplified for a next round of selection. After 5 rounds of selection, peptide-encoding DNA from a set of 48 phage clones was subjected to Sanger sequencing of peptide-encoding phage DNA[18],[22]. For cell-free binding studies with individual phage clones were incubated with Ni-NTA magnetic beads coated with hexahistidine-tagged TNC-C as above. RPARPAR phage binding to NRP-1-coated beads was used as a positive control. Phage clones displaying heptaglycine peptide (GGGGGGG, G7), or insertless phage clones were used as negative controls. […]
Fig. S13. NRP -1-dependent internalization of PL3 -functionalized AgNPs […]
Supplementary Materials and Methods
Cloning, expression , and purification of TNC-C
Vector Construction. A pF1K (Promega, # FXC00319) derivative plasmid containing full -length cDNA of TNC was used for PCR amplification of cDNA region of TNC-C with Phusion Hot Start II High -Fidelity DNA Polymerase (Thermo Fisher Scientific Inc # F -537L; primer pairs:
5′- CTCCTCT […] -3′ and 5′ -
CAGACA CTCGAG TTATCA TGTAACAATCTC -3′ for domain TNC -C. NdeI and XhoI restriction sites underlined ). The fragments were cloned in the pET28a+ plasmid for TNC -C expression as a n N-terminally His -tagged protein .
Expression and purification of TNC-C. The pET28a+ TNC-C plasmid was used for transformation of E. coli BL21 Rosetta 2 (DE3) pLysS cells (Novagen, #70956). The protein expression was induced by addition of isopropyl β-D-1-thiogalactopyranoside (IPTG) (Sigma, # I6758) to 0.5 mM final concentration and the bacteria were culture d at 18 °C for 16h . Cells were […]
collected by centrifugation, resuspended in ice-cold IMAC buffer (25mM Tris-HCl, 400mM NaCl, 25mM imidazole pH 8, containing EDTA-free protease inhibitor cocktail and DNase I) and lysed by sonification (Bandelin Sonopuls HD 2070, Germany). The cleared bacterial lysate was purified using HiTrap IMAC HP column s (GE Healthcare # 17 -0920-05) on ÄKTA purification system (GE Healthcare ), and the eluate was dialyzed against PBS using 3.5 kDa cut - off 3mL Slide-A-Lyzer Dialysis Cassettes (Thermo Scientific #66330). TNC-C concentration was determined by bicinchoninic acid assay (Thermo Scientific #23227) , and the purity of the proteins was assessed by SDS -PAGE. Mass spectrometry and de novo peptide sequencing were used to confirm the size and sequence of the purified proteins . His-tagged NRP-1 b1b2 domain was expressed and purified as described (Teesalu et al., 2009) .
Single-chain antibodies: The cDNA sequences encoding TNC-C-G11-scFV were retrieved from […]

[1] = test system: tumor tissue across models (4 glioma models and 1 prostate cancer model); assay: In vivo play-off phage auditioning, across tumor models; parameters: species or system nude mice; conditions: T7 phage play-off, i.v., 2 h
Procedure: (§2) In vivo play-off was used for internally controlled and competitive systemic phage homing studies in mice bearing tumor xenografts. Phages displaying the candidate TNC-C binding peptides and control peptides were individually amplified and purified by precipitation with PEG-8000 (Sigma-Aldrich, St. Louis, MO, USA), followed by […] gradient ultracentrifugation and dialysis. The phages were pooled at equimolar representation (Table 1 for details) and injected iv at 1 × 10^10 pfu (in 200 µl PBS) in tumor-bearing mice, circulated for 2 h, followed by anesthesia and intracardial perfusion with DMEM. The tumors and organs were collected in lysogeny broth (LB) medium containing 1% NP40, and the tissues were homogenized using a hand-held homogenizer. Phages in the tissue lysate were amplified in E.coli, purified by precipitation with PEG-8000, and DNA was extracted using a DNA extraction kit (High Pure PCR Template Preparation Kit; Roche, Basel, Switzerland). Next-generation sequencing of phage genomic DNA with Ion Torrent system (Thermo Fisher Scientific, Waltham, MA, USA) was used to evaluate the representation of each peptide-phage in the input mixture, in tumors and control organs. The FASTQ data from Ion Torrent were processed using a custom python script that identified the barcodes, constant flanking residues, and extracted the reads of the correct length.

WT-GBM = assay: In vivo play-off phage auditioning, WT-GBM tumor; parameters: species or system murine WT-GBM glioblastoma in athymic nude mice; conditions: phage-displayed peptide; equimolar mix, i.v. 1 × 10^10 pfu/mouse, 2 h circulation, perfusion; Ion-Torrent sequencing; mean, N = 3 mice
Procedure: (§3) Athymic nude mice (Hsd/Athymic Fox1 nu Harlan) were purchased from Envigo (Netherlands) and maintained under standard housing conditions of the Animal Facility of the Institute of Biomedicine and Translational Medicine, University of Tartu (Tartu, Estonia). For orthotropic GBM tumor models, we used NCH421K, P13, and P3 stem cell-like, WT-GBM cells. The individual GBM cells around 2–3 × 10^5 in 3 μL PBS were intracranially implanted into mice brain 2 mm right and 1 mm anterior to the bregma. U87-MG and PC3 subcutaneous models were induced by injecting 2–9 × 10^6 cells in 100 µl PBS subcutaneously into the right flank of 11–15 week old male and female nude mice. All animal experiments were performed in accordance with the procedures approved by the Committee of Animal Experimentation of Estonian Ministry of Agriculture, permits #42 and #48.
as §2

PC3 = assay: In vivo play-off phage auditioning, PC3 tumor; parameters: species or system prostate carcinoma in athymic nude mice; conditions: phage-displayed peptide; equimolar mix, i.v. 1 × 10^10 pfu/mouse, 2 h circulation, perfusion; Ion-Torrent sequencing; mean, N = 3 mice
Procedure: as §3, §2

[2] = test system: recombinant b1b2 domain of NRP-1; assay: Cell-free phage binding to NRP-1; conditions: T7 phage-displayed peptide
Procedure: as §1
collected by centrifugation, resuspended in ice-cold IMAC buffer (25mM Tris-HCl, 400mM NaCl, 25mM imidazole pH 8, containing EDTA-free protease inhibitor cocktail and DNase I) and lysed by sonification (Bandelin Sonopuls HD 2070, Germany). […] TNC-C concentration was determined by bicinchoninic acid assay (Thermo Scientific #23227) , and the purity of the proteins was assessed by SDS -PAGE. […]
Single-chain antibodies: The cDNA sequences encoding TNC-C-G11-scFV were retrieved from US patent application EP2157102 A1, and synthetic DNA fragments were cloned in the pET28a+ expression plasmid. […] The purified antibodies were analyzed by SDS-PAGE. […]

P3 SCL = assay: In vivo play-off phage auditioning, P3 SCL tumor; parameters: species or system P3 stem cell-like glioblastoma in athymic nude mice; conditions: phage-displayed peptide; equimolar mix, i.v. 1 × 10^10 pfu/mouse, 2 h circulation, perfusion; Ion-Torrent sequencing; mean, N = 3 mice
Procedure: as §3, §2

fibronectin EDB-domain = assay: Cell-free phage binding to fibronectin EDB; conditions: T7 phage-displayed PL3; in words
P13 = assay: In vivo play-off phage auditioning, P13 tumor; parameters: species or system P13 glioblastoma in athymic nude mice; conditions: phage-displayed peptide; equimolar mix, i.v. 1 × 10^10 pfu/mouse, 2 h circulation, perfusion; Ion-Torrent sequencing; mean, N = 3 mice
Procedure: as §3, §2

U87-MG = assay: In vivo play-off phage auditioning, U87-MG tumor; parameters: species or system human glioblastoma in athymic nude mice; conditions: phage-displayed peptide; equimolar mix, i.v. 1 × 10^10 pfu/mouse, 2 h circulation, perfusion; Ion-Torrent sequencing; mean, N = 3 mice
Procedure: as §3, §2

Norm. brain = assay: In vivo play-off phage auditioning, normal brain; parameters: species or system athymic nude mice; conditions: phage-displayed peptide; equimolar mix, i.v. 1 × 10^10 pfu/mouse, 2 h circulation, perfusion; Ion-Torrent sequencing; mean, N = 3 mice
Procedure: as §2

[3] = biological target: recombinant human Tenascin-C FnIII C domain (TNC-C), hexahistidine-tagged; assay: phage binding to immobilized recombinant protein (cell-free); conditions: read off a plot
[4] = biological target: recombinant b1b2 domain of neuropilin-1 (NRP-1); assay: as above; conditions: read off a plot
[5] = biological target: recombinant human Tenascin-C FnIII C domain (TNC-C), hexahistidine-tagged (human); assay: fluorescence polarisation; fluorescence anisotropy saturation binding; 0.66 uM FAM-Cys-PL3 with 0-112 uM NRP1 or 0-275 uM TNC-C; DPBS with 0.1% Pluronic F-127; 24 h at 25 C; non-specific binding with 500 uM Biotin-Ahx-PL3; global fit, single binding site with ligand depletion
[6] = biological target: recombinant b1b2 domain of neuropilin-1 (NRP-1); assay: as above
[7] = biological target: recombinant b1b2 domain of neuropilin-1 (NRP-1); assay: phage binding assay; individual T7 phage clones incubated with Ni-NTA magnetic beads coated with hexahistidine-tagged TNC-C (30 ug/10 ul beads) or NRP-1-coated beads, room temperature 1 h, washing buffer PBS with 1% BSA and 0.1% Tween-20, elution with 500 mM imidazole and 0.1% NP40, phage titered; binding as fold heptaglycine (G7) control phage or percent of parental PL3 phage

## AGRGRLVR (left off: T7 phage particle (peptide displayed on it), end not stated, kept) [PL3]
Recombinant TNC-C; T7 phage-displayed peptide, alanine scan expressed as percent binding of parental PL3 phage, 3 independent experiments
  phage binding to recombinant TNC-C (in words): binds; also recorded: robust interaction with TNC-C
[1]
  representation in tumor tissue across models: overrepresented in tumor tissue across models tested
WT-GBM
  Representation of phage in tumors, WT-GBM: 24.1 fold G7 control phage
PC3
  Representation of phage in tumors, PC3: 3.9 fold G7 control phage
[2]; NRP-1 b1b2-coated beads
  phage binding to NRP-1 (in words): binds
[2]; fold over G7 control phage
  PL3 phage binding to b1b2 domain of NRP-1 vs heptaglycine control phage: ~ 200 fold
P3 SCL
  Representation of phage in tumors, P3 SCL: 2.1 fold G7 control phage
Fibronectin EDB-domain
  phage binding to fibronectin EDB-domain: did not bind; also recorded: no binding
P13
  Representation of phage in tumors, P13: 4.7 fold G7 control phage
U87-MG
  Representation of phage in tumors, U87-MG: 2.1 fold G7 control phage
Norm. brain
  Representation of phage in control brain tissue (Norm. brain): 0.4 fold G7 control phage

## T7 phage displaying PL3 peptide (AGRGRLVR) G2A
[3]
  percent of parent: 100%
[4]
  percent of parent: 92%

## T7 phage displaying PL3 peptide (AGRGRLVR) G4A
[3]
  percent of parent: 90%
[4]
  percent of parent: 96%

## T7 phage displaying PL3 peptide (AGRGRLVR) L6A
[3]
  percent of parent: 34%
[4]
  percent of parent: 140%

## T7 phage displaying PL3 peptide (AGRGRLVR) R3A
[3]
  percent of parent: 10%

## T7 phage displaying PL3 peptide (AGRGRLVR) R5A
[3]
  percent of parent: 49%
[4]
  percent of parent: 190%

## T7 phage displaying PL3 peptide (AGRGRLVR) R8A
[3]
  percent of parent: 26%
[4]
  percent of parent: 19%

## T7 phage displaying PL3 peptide (AGRGRLVR) V7A
[3]
  percent of parent: 76%
[4]
  percent of parent: 180%

## VGRVRFSRKLAAALE [Clone-30]
Recombinant TNC-C; individual T7 phage clones, Ni-NTA magnetic beads coated with hexahistidine-tagged TNC-C
  TNC-C binding (fold G7 control phage): 3702 fold G7 control phage
WT-GBM
  Representation of phage in tumors, WT-GBM: 2.5 fold G7 control phage
PC3
  Representation of phage in tumors, PC3: 1.2 fold G7 control phage
P3 SCL
  Representation of phage in tumors, P3 SCL: 0.4 fold G7 control phage
P13
  Representation of phage in tumors, P13: 0.5 fold G7 control phage
U87-MG
  Representation of phage in tumors, U87-MG: 0.7 fold G7 control phage
Norm. brain
  Representation of phage in control brain tissue (Norm. brain): 0.1 fold G7 control phage

B1: FAM-Cys-PL3 fluorescent peptide (peptide)
peptide: CAGRGRLVR
modifications: not fully specified (N-terminus); also: 6-aminohexanoic acid spacer, position not given here
[5]
  Kd: 51 µM
[6]
  Kd: 1.1 µM

## AGRGRLVR [T7 phage displaying PL3 peptide (AGRGRLVR)]
[7]
  fold binding over heptaglycine control phage: 200 fold
